Where no end group is shown, it is not given here.

Consider 3 sequences from publication PMC4450091 (JOM (Warrendale, Pa. : 1989), 2015).

For experiment [1], the system named is Escherichia coli ATCC 2592. The experiment is classed as cell-based. The settings on record: ATCC 2592, 24 h.
The subject of experiment [2] is Streptococcus mutans ATCC 25175. The experiment is classed as cell-based. The conditions noted are these: ATCC 25175, 24 h.

HAYKQPVLSTPFGGGKWKRWWWWR [TiBPS3-AMP2]: the “Minimum inhibitory concentration (MIC), E. coli” value in experiment [1] worked out at 167.4 µM.

Turning to RPRENRGRERGLGGGKWKRWWWWR [TiBPS1-AMP2], the “Minimum inhibitory concentration (MIC), E. coli” value in experiment [1] stood at 80.8 µM.

“SRPNGYGGSESSGGGLKLLKKLLKLLKKL [TiBPS2-AMP1]”: in experiment [2], the “Minimum inhibitory concentration (MIC), S. mutans” value came out at 336.5 µM.
